# Patent US10251398B2, “Improving shelf life and color profile of resin compositions with silver nanoparticles” (priority 2013, dated 2019)
# Columns and labels:
# [1] = in water; cited from earlier work
# [2] = silver benzoate combined with solvent DMAEMA; FIG. 1
# Text: FIG. 9 compares the resin compositions of FIG. 7 (A) with the color profiles of various resin compositions prepared with the silver benzoate/DMAEMA mixture added to the base resin before mixing with the catalyst resin to polymerize and cured by either light-curing or self-curing (B).
Compound,water solubility [1],change in color over time [2]
"C=C(C)C(=O)OC [methyl methacrylate (MMA), methyl methacrylate]",about 1.6 g in 100 g of water,
O=C([O-])c1ccccc1.[Ag+] [silver benzoate],,become darker over time
